The test system of assay [1] is SW982. As to the kind of experiment: Cytotoxicity against human SW982 cells assessed as reduction in cell viability incubated for 72 hrs by MTT assay. It is filed as functional.
In assay [2] the test system is RD. Nature of the assay: Cytotoxicity against human RD cells assessed as reduction in cell viability incubated for 72 hrs by MTT assay. The assay is classed as functional.
For assay [3], the system named is SW982. As to the kind of experiment: Antiproliferative activity against human SW982 cells assessed as reduction in clone formation rate at 5 uM for 1 to 2 weeks with fresh medium replacement for every 2 to 3 days in presence of tazemetostat by crystal violet staining based microscopic analysis. It is filed as functional, cell-based. Particulars: time 1-2 weeks.

Assay [4] deals with RD. As to the kind of experiment: Antiproliferative activity against human RD cells assessed as reduction in clone formation rate at 5 uM for 1 to 2 weeks with fresh medium replacement for every 2 to 3 days by crystal violet staining based microscopic analysis. The assay is classed as functional, cell-based. Particulars: time 1-2 weeks.
Assay [5] deals with RD. As to the kind of experiment: Antiproliferative activity against human RD cells assessed as reduction in clone formation rate at 5 uM for 1 to 2 weeks with fresh medium replacement for every 2 to 3 days in presence of tazemetostat by crystal violet staining based microscopic analysis. The assay is classed as functional, cell-based. The settings on record: time 1-2 weeks.

Assay [6] relates to SW982. As to the kind of experiment: Antiproliferative activity against human SW982 cells assessed as reduction in clone formation rate at 5 uM for 1 to 2 weeks with fresh medium replacement for every 2 to 3 days by crystal violet staining based microscopic analysis. The assay is classed as functional, cell-based. Particulars: time 1-2 weeks.
Assay [7] deals with T1, Histone-lysine N-methyltransferase EHMT2 (Homo sapiens, UniProt Q96KQ7).
T1 sequence (Q96KQ7 whole entry): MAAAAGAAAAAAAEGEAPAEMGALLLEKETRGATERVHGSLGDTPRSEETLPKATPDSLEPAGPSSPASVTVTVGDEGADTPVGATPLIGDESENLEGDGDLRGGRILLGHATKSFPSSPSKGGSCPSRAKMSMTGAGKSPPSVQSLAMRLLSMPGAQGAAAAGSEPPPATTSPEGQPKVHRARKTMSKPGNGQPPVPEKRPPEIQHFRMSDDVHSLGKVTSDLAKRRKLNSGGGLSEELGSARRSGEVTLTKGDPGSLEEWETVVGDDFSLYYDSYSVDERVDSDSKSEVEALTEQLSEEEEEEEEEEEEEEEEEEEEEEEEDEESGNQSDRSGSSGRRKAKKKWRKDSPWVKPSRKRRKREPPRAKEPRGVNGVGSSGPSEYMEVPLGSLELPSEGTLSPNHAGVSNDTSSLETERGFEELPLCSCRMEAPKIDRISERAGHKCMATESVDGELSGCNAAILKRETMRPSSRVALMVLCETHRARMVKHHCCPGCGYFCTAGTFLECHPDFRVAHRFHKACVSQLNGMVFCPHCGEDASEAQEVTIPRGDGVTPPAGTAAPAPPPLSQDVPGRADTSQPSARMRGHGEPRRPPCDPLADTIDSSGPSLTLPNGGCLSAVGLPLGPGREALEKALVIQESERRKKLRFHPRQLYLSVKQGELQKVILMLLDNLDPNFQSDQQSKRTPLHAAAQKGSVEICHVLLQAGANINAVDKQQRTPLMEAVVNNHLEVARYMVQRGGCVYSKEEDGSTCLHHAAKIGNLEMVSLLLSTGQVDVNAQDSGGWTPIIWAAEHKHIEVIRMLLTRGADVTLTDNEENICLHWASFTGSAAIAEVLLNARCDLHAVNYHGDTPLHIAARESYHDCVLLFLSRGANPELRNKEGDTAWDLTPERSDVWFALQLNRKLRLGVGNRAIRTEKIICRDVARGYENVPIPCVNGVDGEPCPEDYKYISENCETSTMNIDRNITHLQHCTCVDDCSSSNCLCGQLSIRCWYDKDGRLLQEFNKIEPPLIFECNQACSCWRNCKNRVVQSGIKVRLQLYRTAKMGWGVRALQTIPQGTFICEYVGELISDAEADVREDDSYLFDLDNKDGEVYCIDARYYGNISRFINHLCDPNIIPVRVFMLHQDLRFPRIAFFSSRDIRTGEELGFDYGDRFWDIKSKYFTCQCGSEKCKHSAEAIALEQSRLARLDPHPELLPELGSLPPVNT
Nature of the assay: Inhibition of human recombinant EHMT2 G9a using SAM as substrate incubated for 1 hr by microplate luminescence based HMT assay.

Assay [8] concerns the target Histone-lysine N-methyltransferase EZH2 (Homo sapiens, UniProt Q15910). Nature of the assay: Inhibition of human EZH2 using SAM as substrate incubated for 1 hr by microplate luminescence based HMT assay.
The test system of assay [9] is Mus musculus. As to the kind of experiment: Downregulation of H3K9me2 expression in tumor tissue of BALB/c nude mouse xenografted with human RD cells at 20 mg/kg, ip administered for 5 consecutive days followed by 2 rest days for 3 weeks by Western blotting analysis. The assay is classed as functional, organism-based.
The subject of assay [10] is RD. As to the kind of experiment: Antitumor activity against human RD cells xenografted in BALB/c nude mouse assessed as tumor growth inhibition at 20 mg/kg, ip administered for 5 consecutive days followed by 2 rest days for 3 weeks. The settings on record: 504 h, read-out: TGI. In general terms: In xenograft studies the graft and the host belong to different species.

For assay [11], the system named is Mus musculus. Nature of the assay: Downregulation of H3K27me3 expression in tumor tissue of BALB/c nude mouse xenografted with human RD cells at 20 mg/kg, ip administered for 5 consecutive days followed by 2 rest days for 3 weeks by Western blotting analysis. It is filed as functional, organism-based.

Structures are written as SMILES. Calls of active or inactive are those of the source. No cut-off for these calls is given here.

As a reminder, the CC50 is the concentration giving 50% cytotoxicity. Usually IC50 stands for the concentration that gives 50% inhibition.

Histone-lysine N-methyltransferase EZH2, sequence (Q15910 whole entry): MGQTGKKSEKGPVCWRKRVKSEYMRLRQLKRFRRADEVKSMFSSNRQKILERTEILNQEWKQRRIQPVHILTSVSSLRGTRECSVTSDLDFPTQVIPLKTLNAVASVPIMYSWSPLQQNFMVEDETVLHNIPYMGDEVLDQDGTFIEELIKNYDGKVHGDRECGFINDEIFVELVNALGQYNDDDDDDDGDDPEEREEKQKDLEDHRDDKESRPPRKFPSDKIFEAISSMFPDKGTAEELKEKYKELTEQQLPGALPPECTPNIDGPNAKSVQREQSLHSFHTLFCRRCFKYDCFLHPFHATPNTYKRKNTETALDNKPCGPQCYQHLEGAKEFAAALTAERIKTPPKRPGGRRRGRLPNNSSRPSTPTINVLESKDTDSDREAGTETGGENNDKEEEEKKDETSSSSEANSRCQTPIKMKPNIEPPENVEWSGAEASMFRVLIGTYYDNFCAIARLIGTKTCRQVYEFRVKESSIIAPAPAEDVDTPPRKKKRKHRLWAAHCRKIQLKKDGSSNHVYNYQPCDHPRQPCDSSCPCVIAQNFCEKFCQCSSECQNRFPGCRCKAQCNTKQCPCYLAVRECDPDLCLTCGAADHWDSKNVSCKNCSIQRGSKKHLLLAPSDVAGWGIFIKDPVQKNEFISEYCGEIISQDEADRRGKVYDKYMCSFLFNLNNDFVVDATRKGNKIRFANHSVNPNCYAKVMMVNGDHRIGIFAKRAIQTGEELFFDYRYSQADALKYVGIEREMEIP

Consider `COc1cc2c(NC3CCN(C(C)C)CC3)nc(C3CCCCC3)nc2cc1OCCCN1CCCC1`, for which the CC50 came out at 29.5 µM in assay [1] and 34.2 µM in assay [2]. Besides, the outcome in assay [3], in assay [4], in assay [5] and in assay [6] was Active.

Consider `CCN1CCN(c2nc(NCc3c(C)cc(C)[nH]c3=O)c3cc(OC)c(OCCCN4CCCC4)cc3n2)CC1`, for which the CC50 in assay [1] turned out to be 53.6 µM; in assay [2], 22.7 µM.

In the case of `COc1cc2c(NCc3c(C)cc(C)[nH]c3=O)nc(N3CCCCCC3)nc2cc1OCCCN1CCCC1`, the CC50 in [1] was determined as 35.7 µM; in assay [2] it was 23.5 µM.

For `COc1cc2c(NCc3c(C)cc(C)[nH]c3=O)nc(N3CCOCC3)nc2cc1OCCCN1CCCC1`, the values for the CC50 in assay [1] and in assay [2] were 99.8 µM and 73.8 µM, respectively.

Regarding `COc1cc2c(NCc3c(C)cc(C)[nH]c3=O)nc(N3CCN(C)CC3)nc2cc1OCCCN1CCCC1`, the CC50 in assay [1] worked out at 67.2 µM; in assay [2], 60.1 µM.

For `COc1cc2nc(N(C)CCCN(C)C)nc(NCc3c(C)cc(C)[nH]c3=O)c2cc1OC`, the CC50 in assay [1] was found to be 101 µM; in assay [2] it was 76 µM.

With `COc1cc2nc(N3CCOCC3)nc(NCc3c(C)cc(C)[nH]c3=O)c2cc1OC`, the figures for the CC50 in assay [1] and in [2] were 89.2 µM and 77.2 µM, respectively.

With `COc1cc2c(NCc3c(C)cc(C)[nH]c3=O)nc(N3CCCC3)nc2cc1OCCCN1CCCC1`, the CC50 in [1] came to 90.2 µM; in assay [2] it was 75.7 µM.

Regarding `COc1cc2c(NCc3c(C)cc(C)[nH]c3=O)nc(N(C)C)nc2cc1OCCCN1CCCC1`, the half-maximal cytotoxic concentration (CC50) in [1] was found to be 85 µM; in [2], 74.4 µM.

Consider `COc1cc2nc(N(C)CCN(C)C)nc(NCc3c(C)cc(C)[nH]c3=O)c2cc1OC`, for which the CC50 in assay [1] amounted to 85.7 µM; in assay [2], 84.9 µM.

In the case of `COc1cc2c(NCc3c(C)cc(C)[nH]c3=O)nc(N(C)CCN(C)C)nc2cc1OCCCN1CCCC1`, the CC50 stood at 78.3 µM in assay [1] and 74.3 µM in assay [2].

On to `COc1cc2nc(N3CCCN(C)CC3)nc(NCc3c(C)cc(C)[nH]c3=O)c2cc1OC`, for which the 50% cytotoxic concentration (CC50) worked out at 99.8 µM in assay [1] and 68.5 µM in assay [2]. The concentration for half-maximal inhibition (IC50) in assay [7] amounted to 0.015 µM; in assay [8], 0.0533 µM.

With `COc1cc2nc(N3CCN(C)CC3)nc(NCc3c(C)cc(C)[nH]c3=O)c2cc1OC`, the CC50 in assay [1] was determined as 106 µM; in assay [2] it was 79.9 µM.

For `COc1cc2c(NCc3c(C)cc(C)[nH]c3=O)nc(N3CCC(OC)CC3)nc2cc1OCCCN1CCCC1`, the CC50 was 61.6 µM in [1] and 40.1 µM in assay [2].

As for `CCN(c1cc(-c2ccc(CN3CCOCC3)cc2)cc(C(=O)NCc2c(C)cc(C)[nH]c2=O)c1C)C1CCOCC1` [TAZEMETOSTAT], the figures for the CC50 in [1] and in assay [2] were 116 µM and 245 µM, respectively. In addition, the result in assay [9] and in assay [11] was Active. In assay [10], the inhibition in vivo at 20 mg/kg is 69.2%.

In the case of `COc1cc2c(NCc3c(C)cc(C)[nH]c3=O)nc(N3CCCN(C)CC3)nc2cc1OCCCN1CCCC1`, the CC50 in [1] came out at 48.9 µM; in [2], 56.5 µM.

For the molecule `COc1cc2c(NCc3c(C)cc(C)[nH]c3=O)nc(N3CCCCC3)nc2cc1OCCCN1CCCC1`, the cytotoxic concentration (CC50) in [1] was determined as 27 µM; in [2], 41.3 µM.

Turning to `CCN(CC)c1nc(NCc2c(C)cc(C)[nH]c2=O)c2cc(OC)c(OCCCN3CCCC3)cc2n1`, the CC50 in [1] stood at 87.7 µM; in assay [2], 82.5 µM.

These data come from ChEMBL document CHEMBL5338739, “Discovery of Dual Lysine Methyltransferase G9a and EZH2 Inhibitors with In Vivo Efficacy against Malignant Rhabdoid Tumor” (J Med Chem, 2023).
